The values that follow come from patent US20240058464A1 (Fortis Therapeutics, Inc., priority 2021, published 2024).

In test [1] the test system is CD46 expression. Description: CD46 expression by RNA-sequencing in unpaired pre-treatment and post-treatment tumor biopsies. Type of test: in vivo, human. Conditions: for CD46 expression diff: Post minus Pre, unpaired biopsies, log2-transformed counts; for CD46 expression Percentage change: post- vs pre-treatment unpaired biopsies; for CD46 expression Post: post-treatment biopsies, unpaired, RNA-seq log2-transformed normalized counts.

Test [2] concerns CD46 expression.
Method: (§1) Gene expression was determined by RNA-sequencing from formalin-fixed, paraffin-embedded (FFPE) tumor samples using an exome capture-based protocol. Briefly, total nucleic acid was extracted from FFPE solid tumor samples. The RNA sample was treated with DNAse and reverse transcribed. cDNA was captured with a custom probe set targeting the human exome. A library was prepared from the captured cDNA and sequenced on the Illumina platform. Sequence read were aligned to GRCh37 using Kallisto and normalized to quantify gene expression. Specifically, transcript counts were corrected for GC content and length using quantile normalization and adjusted for sequencing depth via a size factor method. Normalized counts in protein coding transcripts covered by the exome panel were then summed to obtain gene-level counts. Subsequent expression analyses were performed on log2-transformed counts.
Test [3] deals with CD46 expression. Kind of test: CD46 expression by RNA-sequencing in paired tumor biopsies before and after therapy.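 Also: FFPE human tumor biopsies, exome-capture RNA-seq, reads aligned to GRCh37, counts normalized for GC content, length and depth, summed per gene, log2-transformed, samples paired before versus after therapy.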 The following applies: paired biopsies.
Method: as §1
Where [4] appears, read: Breast Cancer, RNA-seq log2-transformed counts.

Where two headings read alike, the source gives them in different places.

On to `C=C1C[C@@H]2[C@H](CC[C@]3(C)C(=O)CC[C@@H]23)[C@@]2(C)C=CC(=O)C=C12` [exemestane], for which, in the test with CD46 expression [1] (Breast Cancer), the CD46 expression diff was found to be 0.11, the “CD46 expression Percentage change” value amounted to 1.8% and the “CD46 expression Post” value turned out to be 6.50. Further, in the test on CD46 expression [2], the “CD46 expression, Post-Treatment Biopsy” value stood at 6.37 and the “CD46 expression, Pre-Treatment Biopsy” value is 6.41. In the test on CD46 expression [2] (Breast Cancer, paired biopsies), the “CD46 expression diff (post minus pre)” value is on record as −0.04 and the “Percent Change in CD46 expression” value is on record as 0.5%.

On to `CNC(=O)c1cc(Oc2ccc(NC(=O)Nc3ccc(Cl)c(C(F)(F)F)c3)c(F)c2)ccn1` [regorafenib], for which, in the test on CD46 expression [1] (Colorectal Cancer), the CD46 expression diff was 0.19, the “CD46 expression Percentage change” value is 2.9% and the “CD46 expression Post” value stood at 6.63. Further, in the test with CD46 expression [3] (Colorectal Cancer), the “CD46 expression diff (post minus pre)” value is 0.25 and the “Percent Change in CD46 expression” value was determined as 4.0%. The “CD46 expression, Post-Treatment Biopsy” value in the test on CD46 expression [3] (Colorectal Cancer, RNA-seq log2-transformed counts) stood at 6.49.

In the case of `CC/C(=C(\c1ccccc1)c1ccc(OCCN(C)C)cc1)c1ccccc1` [tamoxifen], in the test on CD46 expression [1] (Breast Cancer), the CD46 expression diff is given as 0.11, the “CD46 expression Percentage change” value amounted to 1.8% and the “CD46 expression Post” value was 6.38. In the test with CD46 expression [3] (Breast Cancer), the “CD46 expression diff (post minus pre)” value came to 0.11 and the “Percent Change in CD46 expression” value is recorded as 1.7%. Moreover, the “CD46 expression, Post-Treatment Biopsy” value in the test on CD46 expression [3] (setting [4]) came out at 6.32.

Turning to `Cn1nnc2c(C(N)=O)ncn2c1=O` [temozolomide], in the test with CD46 expression [1] (Endocrine Tumor), the CD46 expression diff is on record as −0.04, the “CD46 expression Percentage change” value was −0.8% and the “CD46 expression Post” value was determined as 5.52. Further, in the test with CD46 expression [1] (Glioblastoma), the CD46 expression diff was determined as 0.08, the “CD46 expression Percentage change” value is given as 1.6% and the “CD46 expression Post” value is on record as 4.85. For the same compound, in the test with CD46 expression [3] (Glioblastoma), the “CD46 expression diff (post minus pre)” value came out at 0.04 and the “Percent Change in CD46 expression” value amounted to 0.8%. Further, the “CD46 expression, Post-Treatment Biopsy” value in the test on CD46 expression [3] (Glioblastoma, RNA-seq log2-transformed counts) is listed as 4.80.

Consider atezolizumab, for which, in the test on CD46 expression [1] (Breast Cancer), the CD46 expression diff is listed as 0.07, the “CD46 expression Percentage change” value was 1.3% and the “CD46 expression Post” value was 6.00. In the test with CD46 expression [1] (Non-Small Cell Lung Cancer), the CD46 expression diff is 0.00, the “CD46 expression Percentage change” value is listed as −0.1% and the “CD46 expression Post” value is 6.04. Moreover, in the test on CD46 expression [3] (Breast Cancer), the “CD46 expression diff (post minus pre)” value is given as −0.14 and the “Percent Change in CD46 expression” value was −2.4%. In addition, in the test with CD46 expression [3] (setting [4]), the “CD46 expression, Post-Treatment Biopsy” value was determined as 5.99 and the “CD46 expression, Pre-Treatment Biopsy” value was determined as 6.14.
